Measurements as given in US8946218B2, “CCR2 receptor antagonists, method for producing the same, and use thereof as medicaments” (Boehringer Ingelheim International GmbH, priority 2010, dated 2015).

These molecules were tested against T1, CCR2 (Homo sapiens, UniProt P41597) (assay: Receptor membrane binding assay: [125I]MCP-1 binding to CCR2 on THP-1 cell membranes (SPA beads)). Conditions: THP-1 membranes, [125I]MCP-1, bound radioactivity after 8 h; read-out: hKi.
T1 construct: Membranes were prepared from THP-1 cells; endogenous in cells; host or cells: THP-1 (human acute monocytic leukaemia cells), membrane preparation
Method: The above exemplary substances have been tested for binding to CCR2 using a binding assay as outlined herein below:
THP-1 cells (human acute monocytic leukaemia cells) were cultured under standardized conditions at 37° C. and 5% CO2 in a humidified incubator. THP-1 cells were cultivated in RPMI 1640 medium (Gibco 21875) containing 1% MEM-NEAA (Gibso 11140) 2 mM L-glutamine, 1.5 g/L sodium bicarbonate, 4.5 g/L glucose, 10 mM HEPES and 1.0 mM sodium pyruvate, 90%; 10% fetal calf serum (FCS Gibco 10500-064).
Membranes were prepared from THP-1 cells. THP-1 cells were centrifuged at 300×g at 4° C. for 10 min. The cell pellet was resuspended in Phosphate Buffer Saline (PBS, including 10 μM Pefabloc and a protease inhibitor mix ‘complete’, Boehringer Mannheim (1 tablet/50 ml)), to a concentration of […]. The membrane preparation was performed by disrupting the cells by nitrogen […] (at 50 bar, for 1 h) in a “Nitrogen Bombe” (Parr Instrument). Cell debris was removed by centrifugation (800×g at 4° C., 1 min). The supernatant was centrifuged at 80000×g, 4° C. for 30 min to sediment the cell membranes. Usually 50 mg of protein (Bradford assay) were yielded from 1×10E9 cells. The membranes were resuspended in 25 mM HEPES, 25 mM MgCl2, 1 mM CaCl2, 10% Glycerine for storage in aliquots at −80° C. in 25 mM HEPES, 25 mM MgCl2, 1 mM CaCl2, 10% Glycerine and stored at −80° C.
Receptor Membrane Binding Assay:
Perkin Elmer NEX 332 Jod 125 MCP-1, Stock: 2200 Ci/mmol solved in 2000 μl assay buffer, stored at −20° C. THP-1 membrane were adjusted with 25 mM HEPES, pH 7.2; 5 mM MgCl2; 0.5 mM CaCl2; 0.2% BSA assay buffer to a concentration of 2.5 μg/15 μl. Amersham Biosciences PVT-WGA Beads (RPNQ0001) were adjusted with assay buffer to a concentration of 0.24 mg/30 μl. For preparation of the membrane-bead-suspension membranes and beads were incubated for 30 min at RT under rotation (60 rpm) with a ratio of 1:2. Test compounds dissolved in 100% DMSO to a concentration of 10 mM and are further diluted with 100% DMSO to 1 mM. All additional compound dilutions were obtained with assay buffer, final 1% DMSO. Compounds, membrane-bead-suspension and [125I]MCP-1 (ca. 25000 cpm/10 μl) were incubated. Bound radioactivity was determined by scintillation counter after 8 h. Determination of affinity of test compounds (dissociation constant hKi) is calculated by iterative fitting of experimental data using the “easy sys” program, which is based on law of mass action (Schittkowski K. (1994), Numerische Mathematik, Vol. 68, 129-142).

T1 sequence (P41597 whole entry): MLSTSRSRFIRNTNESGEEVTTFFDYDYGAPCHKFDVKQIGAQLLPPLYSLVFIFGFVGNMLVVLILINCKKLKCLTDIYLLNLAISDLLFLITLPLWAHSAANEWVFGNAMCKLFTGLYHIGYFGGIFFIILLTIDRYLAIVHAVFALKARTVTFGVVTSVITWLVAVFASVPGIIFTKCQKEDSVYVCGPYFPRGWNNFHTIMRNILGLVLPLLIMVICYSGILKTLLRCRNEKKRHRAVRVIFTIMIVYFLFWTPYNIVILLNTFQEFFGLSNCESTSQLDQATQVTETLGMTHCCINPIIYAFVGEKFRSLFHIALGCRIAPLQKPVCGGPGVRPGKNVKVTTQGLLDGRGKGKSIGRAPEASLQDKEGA

Structure (SMILES) | Ki
COC1COCCC1NC1CCN(C(=O)c2ncnc(Nc3cccc(C(F)(F)F)c3)c2C)CC1 (centres unmarked) [Example 1] | 0.016 µM
COC1COCCC1NC1CCN(C(=O)c2ncnc(Nc3cc(C(F)(F)F)cc(C(F)(F)F)c3)c2C)CC1 (centres unmarked) [Example 2] | 0.121 µM
COC1COCCC1NC1CCN(C(=O)c2ncnc(Nc3ccccc3)c2C)CC1 (centres unmarked) [Example 3] | 0.45 µM
COC1COCCC1NC1CCN(C(=O)c2ncnc(Nc3cccc(C(F)(F)F)n3)c2C)CC1 (centres unmarked) [Example 4] | 0.11 µM
COC1COCCC1NC1CCN(C(=O)c2ncnc(Nc3cccc(C)c3)c2C)CC1 (centres unmarked) [Example 5] | 0.232 µM
CO[C@H]1COCC[C@H]1NC1CCN(C(=O)c2cc(Nc3cccc(C(F)(F)F)c3)ncn2)CC1 [Example 6] | 0.28 µM
CO[C@@H]1COCC[C@@H]1NC1CCN(C(=O)c2cc(Nc3cccc(C(F)(F)F)c3)ncn2)CC1 [Example 7] | 0.138 µM
CN(C1CCN(C2CCN(C(=O)c3cc(Nc4cccc(C(F)(F)F)c4)ncn3)CC2)CC1)S(C)(=O)=O [Example 8] | 0.398 µM
COC1COCCC1NC1CCN(C(=O)c2ncnc(Nc3ccc(Cl)c(Cl)c3)c2C)CC1 (centres unmarked) [Example 9] | 0.002 µM
COC1COCCC1NC1CCN(C(=O)c2ncnc(N(C)c3cccc(C(F)(F)F)c3)c2C)CC1 (centres unmarked) [Example 10] | 0.481 µM
COC1COCCC1NC1CCN(C(=O)c2ncnc(Nc3cccc(OC(F)(F)F)c3)c2C)CC1 (centres unmarked) [Example 11] | 0.015 µM
COC1COCCC1NC1CCN(C(=O)c2ncnc(Nc3cc(Cl)ccc3C)c2C)CC1 (centres unmarked) [Example 12] | 0.728 µM
COC1COCCC1NC1CCN(C(=O)c2ncnc(Nc3cccc(Cl)c3C)c2C)CC1 (centres unmarked) [Example 13] | 2.99 µM
COC1COCCC1NC1CCN(C(=O)c2ncnc(Nc3cccc(F)c3)c2C)CC1 (centres unmarked) [Example 14] | 0.146 µM
COC1COCCC1NC1CCN(C(=O)c2ncnc(Nc3ccc(Br)cc3)c2C)CC1 (centres unmarked) [Example 15] | 0.03 µM
COC1COCCC1NC1CCN(C(=O)c2ncnc(Nc3cccc(-c4ccncc4)c3)c2C)CC1 (centres unmarked) [Example 16] | 0.707 µM
COC1COCCC1NC1CCN(C(=O)c2ncnc(Nc3ccccc3Cl)c2C)CC1 (centres unmarked) [Example 17] | 5.18 µM
CO[C@@H]1COCC[C@@H]1NC1CCN(C(=O)c2ncnc(Nc3ccc(Cl)c(Cl)c3)c2C)CC1 [Example 17a] | 0.001 µM
CO[C@H]1COCC[C@H]1NC1CCN(C(=O)c2ncnc(Nc3ccc(Cl)c(Cl)c3)c2C)CC1 [Example 17b] | 0.005 µM
CO[C@@H]1COCC[C@@H]1NC1CCN(C(=O)c2ncnc(Nc3cccc(C(F)(F)F)c3)c2C)CC1 [Example 18] | 0.006 µM

Structure (SMILES) | Ki
COc1c(Nc2cccc(C(F)(F)F)c2)ncnc1C(=O)N1CCC(N[C@@H]2CCOC[C@@H]2OC)CC1 [Example 19] | 0.049 µM
COc1c(Nc2cccc(C(F)(F)F)c2)ncnc1C(=O)N1CCC(N[C@H]2CCOC[C@H]2OC)CC1 [Example 20] | 0.026 µM
COc1c(Nc2cccc(C(F)(F)F)c2)ncnc1C(=O)N1CCC(N2CCC(N(C)S(C)(=O)=O)CC2)CC1 [Example 21] | 0.023 µM
Cc1c(Nc2ccc3ccccc3c2)ncnc1C(=O)N1CCC(N2CCC(N(C)S(C)(=O)=O)CC2)CC1 [Example 22] | 0.014 µM
COC1COCCC1NC1CCN(C(=O)c2ncnc(Nc3ccc4ccccc4c3)c2C)CC1 (centres unmarked) [Example 23] | 0.017 µM
Cc1c(Nc2cc3ccccc3c(C)n2)ncnc1C(=O)N1CCC(N2CCC(N(C)S(C)(=O)=O)CC2)CC1 [Example 24] | 0.854 µM
CO[C@@H]1COCC[C@@H]1NC1CCN(C(=O)c2ccnc(Nc3cccc(C(F)(F)F)c3)c2C)CC1 [Example 25] | 0.165 µM
CO[C@H]1COCC[C@H]1NC1CCN(C(=O)c2ccnc(Nc3cccc(C(F)(F)F)c3)c2C)CC1 [Example 26] | 0.046 µM
CO[C@@H]1COCC[C@@H]1NC1CCN(C(=O)c2nccc(Nc3cccc(C(F)(F)F)c3)c2C)CC1 [Example 27] | 0.005 µM
CO[C@H]1COCC[C@H]1NC1CCN(C(=O)c2nccc(Nc3cccc(C(F)(F)F)c3)c2C)CC1 [Example 28] | 0.01 µM
Cc1c(Nc2cccc(C(F)(F)F)c2)ncnc1C(=O)N1CCC(N2CCOCC2)CC1 [Example 29] | 0.053 µM
CO[C@@H]1COCC[C@@H]1NC1CCN(C(=O)c2ncnc(Nc3ccc(Cl)c(C(F)(F)F)c3)c2C)CC1 [Example 30] | 1.48 µM
CO[C@H]1COCC[C@H]1NC1CCN(C(=O)c2ncnc(Nc3ccc(Cl)c(C(F)(F)F)c3)c2C)CC1 [Example 31] | 5.31 µM
CO[C@@H]1COCC[C@@H]1NC1CCN(C(=O)c2cc(Nc3cccc(C(F)(F)F)c3)nc(C(F)(F)F)n2)CC1 [Example 32] | 0.064 µM
CO[C@H]1COCC[C@H]1NC1CCN(C(=O)c2cc(Nc3cccc(C(F)(F)F)c3)nc(C(F)(F)F)n2)CC1 [Example 33] | 0.036 µM
COc1nc(Nc2ccc(Cl)c(Cl)c2)c(C)c(C(=O)N2CCC(N[C@H]3CCOC[C@H]3OC)CC2)n1 [Example 33a] | 0.0005 µM
COc1nc(Nc2ccc(Cl)c(Cl)c2)c(C)c(C(=O)N2CCC(N[C@@H]3CCOC[C@@H]3OC)CC2)n1 [Example 33b] | 0.0007 µM
CO[C@@H]1COCC[C@@H]1NC1CCN(C(=O)c2nc(C(F)(F)F)nc(Nc3ccc(Cl)c(Cl)c3)c2C)CC1 [Example 33c] | 0.0002 µM
CO[C@H]1COCC[C@H]1NC1CCN(C(=O)c2nc(C(F)(F)F)nc(Nc3ccc(Cl)c(Cl)c3)c2C)CC1 [Example 33d] | 0.0003 µM
Cc1c(Nc2ccc(Cl)c(Cl)c2)ncnc1C(=O)N1CCC(N[C@H]2CCOC[C@H]2F)CC1 [Example 33e] | 0.023 µM

Structure (SMILES) | Ki
Cc1c(Nc2ccc(Cl)c(Cl)c2)ncnc1C(=O)N1CCC(N[C@@H]2CCOC[C@@H]2F)CC1 [Example 33g] | 0.008 µM
COc1nc(Nc2ccc(Cl)c(Cl)c2)c(C)c(C(=O)N2CCC(NC3CCOCC3F)CC2)n1 (centres unmarked) [Example 33h] | 0.002 µM
COc1nc(Nc2cccc(C(F)(F)F)c2)c(C)c(C(=O)N2CCC(N[C@@H]3CCOC[C@@H]3OC)CC2)n1 [Example 33i] | 0.003 µM
COc1nc(Nc2cccc(C(F)(F)F)c2)c(C)c(C(=O)N2CCC(N[C@H]3CCOC[C@H]3OC)CC2)n1 [Example 33j] | 0.001 µM
COc1nc(Nc2cccc(C(F)(F)F)c2)c(C)c(C(=O)N2CCC(NC3CCOCC3F)CC2)n1 (centres unmarked) [Example 33k] | 0.005 µM
Cc1c(Nc2ccc(Cl)c(Cl)c2)ncnc1C(=O)N1CCC(NC2CCOCC2)CC1 [Example 33l] | 0.006 µM
COc1nc(Nc2ccc(Cl)c(Cl)c2)c(C)c(C(=O)N2CCC(NC3CCOCC3)CC2)n1 [Example 33m] | 0.0007 µM
Cc1c(Nc2ccc(Cl)c(Cl)c2)nc(C(F)(F)F)nc1C(=O)N1CCC(NC2CCOCC2)CC1 [Example 33n] | 0.001 µM
CO[C@@H]1COCC[C@@H]1NC1CCN(C(=O)c2nc(C3CC3)nc(Nc3ccc(Cl)c(Cl)c3)c2C)CC1 [Example 33o] | 0.0002 µM
CO[C@H]1COCC[C@H]1NC1CCN(C(=O)c2nc(C3CC3)nc(Nc3ccc(Cl)c(Cl)c3)c2C)CC1 [Example 33p] | 0.0003 µM
Cc1c(Nc2ccc(Cl)c(Cl)c2)nc(C2CC2)nc1C(=O)N1CCC(N[C@H]2CCOC[C@H]2F)CC1 [Example 33q] | 0.0008 µM
Cc1c(Nc2ccc(Cl)c(Cl)c2)nc(C2CC2)nc1C(=O)N1CCC(N[C@@H]2CCOC[C@@H]2F)CC1 [Example 33r] | 0.0009 µM
Cc1c(Nc2cccc(C(F)(F)F)c2)nc(C2CC2)nc1C(=O)N1CCC(N[C@@H]2CCOC[C@@H]2F)CC1 [Example 33s] | 0.001 µM
CO[C@@H]1COCC[C@@H]1NC1CCN(C(=O)c2nc(C3CC3)nc(Nc3cccc(C(F)(F)F)c3)c2C)CC1 [Example 33t] | 0.0003 µM
Cc1c(Nc2cccc(C(F)(F)F)c2)nc(C2CC2)nc1C(=O)N1CCC(N[C@H]2CCOC[C@H]2F)CC1 [Example 33u] | 0.001 µM
CO[C@H]1COCC[C@H]1NC1CCN(C(=O)c2nc(C3CC3)nc(Nc3cccc(C(F)(F)F)c3)c2C)CC1 [Example 33v] | 0.0004 µM
COc1nc(Nc2cccc(C(F)(F)F)c2)c(C)c(C(=O)N2CCC(NC3CCOCC3)CC2)n1 [Example 33w] | 0.003 µM
COC1COCCC1NC1CCN(C(=O)c2ncnc(Nc3cc4ccccc4c(C)n3)c2C)CC1 (centres unmarked) [Example 34] | 1.01 µM
CO[C@@H]1COCC[C@@H]1NC1CCN(C(=O)c2ncnc(Nc3ccc4ccccc4c3)c2C)CC1 [Example 35] | 0.026 µM
